In patent US6340689B1 (priority 1999, dated 2002):
≈ marks a conversion by molar mass, not a printed value.

Experiments:
[1] = test system: L. pneumophila serogroup 1; test: microbe, parasite or virus in culture; type: cell-based, Legionella pneumophila; details: for MIC 90% / MIC90: L. pneumophila serogroup 1 (n = 85); for MIC50 / MIC / MIC90: Legionella pneumophila; for MIC: 48 h, read-out: MIC Range
[2] = test system: L. pneumophila serogroup 2; test: microbe, parasite or virus in culture; type: cell-based; details: Legionella pneumophila; for MIC: 48 h, read-out: MIC Range
[3] = test system: L. pneumophila serogroup 3; test: microbe, parasite or virus in culture; type: cell-based; details: Legionella pneumophila; for MIC: 48 h, read-out: MIC Range
[4] = test system: L. pneumophila serogroup 4; test: microbe, parasite or virus in culture; type: cell-based; details: Legionella pneumophila; for MIC: 48 h, read-out: MIC Range
[5] = test system: L. pneumophila serogroup 5; test: microbe, parasite or virus in culture; type: cell-based; details: Legionella pneumophila; for MIC: 48 h, read-out: MIC Range
[6] = test system: L. pneumophila serogroup 6; test: microbe, parasite or virus in culture; type: cell-based; details: Legionella pneumophila; for MIC: 48 h, read-out: MIC Range
[7] = test system: L. pneumophila serogroup 7; test: microbe, parasite or virus in culture; type: cell-based; details: Legionella pneumophila; for MIC: 48 h, read-out: MIC Range
[8] = test system: L. pneumophila serogroup 8, 9; test: microbe, parasite or virus in culture; type: cell-based; details: Legionella pneumophila; for MIC: 48 h, read-out: MIC Range
L. dumoffii = test: organism not typed; type: cell-based; details: for MIC: 48 h, read-out: MIC Range
L. micadadei = test: organism not typed; type: cell-based, L. micdadei; details: for MIC: 48 h, read-out: MIC Range
L. longbeacheae = test: organism not typed; type: cell-based; details: for MIC: 48 h, read-out: MIC Range
Other Legionella spp. = test: microbe, parasite or virus in culture; type: cell-based; details: for MIC: 48 h, read-out: MIC Range
[9] = test system: Erythromycin-susceptible L. pneumophila; type: cell-based, Legionella pneumophila; details: for Mean PAE: Erythromycin-susceptible L. pneumophila (n = 15), 4 × MIC, mean ± SD
[10] = test system: Erythromycin-susceptible Legionella spp. other than L. pneumophila; type: cell-based; details: for Mean PAE: Erythromycin-susceptible Legionella spp. (n = 13), 4 × MIC, mean ± SD
[11] = test system: isolates of Legionella pneumophila and other Legionella spp.; test: microbe, parasite or virus in culture; type: cell-based
[12] = test system: L. pneumophila serogroups 1-9; type: cell-based, Legionella pneumophila
[13] = test system: L. dumoffii and L. longbeachae; test: organism not typed; type: cell-based

With `CO/N=C1\CN(c2nc3c(cc2F)c(=O)c(C(=O)O)cn3C2CC2)CC1CN` (racemic) [Gemifloxacin, (R,S)-7-(3-aminomethyl-4-methoxyiminopyrrolidin-1-yl)-1-cyclopropyl-6-fluoro-4-oxo-1,4-dihydro-1,8-naphthyridine-3-carboxylic acid] the “MIC 90%” value [1] was “≦0.004 mg/L”, the “MIC 90%” value ([1]; listed as gemifloxacin) was 16 ng/mL (≈ 0.0411 µM) and the MIC50 [1] was 16 ng/mL (≈ 0.0411 µM). It also gave an MIC [1] of 8 to 60 ng/mL (≈ 0.0205 to 0.154 µM), an MIC50 [2] of 8 ng/mL (≈ 0.0205 µM) and an MIC90 [2] of 16 ng/mL (≈ 0.0411 µM). It also gave an MIC [2] of 8 to 16 ng/mL (≈ 0.0205 to 0.0411 µM), an MIC50 [3] of 16 ng/mL (≈ 0.0411 µM) and an MIC90 [3] of 16 ng/mL (≈ 0.0411 µM). The MIC [3] was 8 to 16 ng/mL (≈ 0.0205 to 0.0411 µM), the MIC50 [4] was 16 ng/mL (≈ 0.0411 µM) and the MIC90 [4] was 30 ng/mL (≈ 0.077 µM). It also gave an MIC [4] of 8 to 30 ng/mL (≈ 0.0205 to 0.077 µM), an MIC50 [5] of 30 ng/mL (≈ 0.077 µM) and an MIC90 [5] of 30 ng/mL (≈ 0.077 µM). The MIC [5] was 30 to 60 ng/mL (≈ 0.077 to 0.154 µM), the MIC50 [6] was 16 ng/mL (≈ 0.0411 µM) and the MIC90 [6] was 30 ng/mL (≈ 0.077 µM). The MIC [6] was 8 to 30 ng/mL (≈ 0.0205 to 0.077 µM), the MIC50 [7] was 8 ng/mL (≈ 0.0205 µM) and the MIC90 [7] was 16 ng/mL (≈ 0.0411 µM). It also gave an MIC [7] of 8 to 16 ng/mL (≈ 0.0205 to 0.0411 µM), an MIC50 [8] of 16 ng/mL (≈ 0.0411 µM) and an MIC90 [8] of 16 ng/mL (≈ 0.0411 µM). For the same compound, the MIC [8] was 16 ng/mL (≈ 0.0411 µM), the MIC50 (L. dumoffii) was 60 ng/mL (≈ 0.154 µM) and the MIC90 (L. dumoffii) was 60 ng/mL (≈ 0.154 µM). It also gave an MIC (L. dumoffii) of 60 ng/mL (≈ 0.154 µM), an MIC50 (L. micadadei) of 16 ng/mL (≈ 0.0411 µM) and an MIC90 (L. micadadei) of 30 ng/mL (≈ 0.077 µM). The “MICs fold more active than erythromycin” value (L. micadadei) was 5 fold, the MIC (L. micadadei) was 8 to 30 ng/mL (≈ 0.0205 to 0.077 µM) and the MIC50 (L. longbeacheae) was 60 ng/mL (≈ 0.154 µM). The MIC90 (L. longbeacheae) was 60 ng/mL (≈ 0.154 µM), the MIC (L. longbeacheae) was 16 to 60 ng/mL (≈ 0.0411 to 0.154 µM) and the MIC50 (Other Legionella spp.) was 30 ng/mL (≈ 0.077 µM). For the same compound, the MIC90 (Other Legionella spp.) was 60 ng/mL (≈ 0.154 µM), the MIC (Other Legionella spp.) was 16 to 60 ng/mL (≈ 0.0411 to 0.154 µM) and the “Mean PAE” value [9] was 3.49 ± 3 h. The “mean PAE longer than that of trovafloxacin, levofloxacin and clarithromycin” value ([9]; erythromycin-susceptible L. pneumophila) was at least 1 h, the “Mean PAE” value [10] was 2.27 ± 2 h and the “PAE (mean PAE)” value ([10]; erythromycin-susceptible Legionella spp. other than L. pneumophila, four times the MIC) was 2.27 h. For the same compound, the “mean PAE longer than that of trovafloxacin, moxifloxacin and clarithromycin” value ([10]; erythromycin-susceptible Legionella spp. other than pneumophila) was at least 1 h, the MIC90 [11] was 16 ng/mL (≈ 0.0411 µM) and the MIC range ([12]; L. pneumophila serogroups 1-9, text) was 8 to 60 ng/mL. For the same compound, the “fold more active than erythromycin” value ([12]; against L. pneumophila strains tested) was 5-6 fold and the MIC90 [13] was 60 ng/mL (≈ 0.154 µM).
`CO[C@H]1/C=C/O[C@@]2(C)Oc3c(C)c(O)c4c(O)c(c(/C=N/N5CCN(C)CC5)c(O)c4c3C2=O)NC(=O)/C(C)=C\C=C\[C@H](C)[C@H](O)[C@@H](C)[C@@H](O)[C@@H](C)[C@H](OC(C)=O)[C@@H]1C` [Rifampicin] showed an MIC50 [1] of at most 4 ng/mL, an MIC [1] of 4 to 8 ng/mL (≈ 0.00486 to 0.00972 µM) and an MIC90 [1] of 8 ng/mL (≈ 0.00972 µM). The MIC50 [2] was at most 4 ng/mL, the MIC90 [2] was at most 4 ng/mL and the MIC [2] was at most 4 ng/mL. It also gave an MIC50 [3] of at most 4 ng/mL, an MIC90 [3] of at most 4 ng/mL and an MIC [3] of at most 4 ng/mL. It also gave an MIC50 [4] of at most 4 ng/mL, an MIC90 [4] of at most 4 ng/mL and an MIC [4] of 4 to 8 ng/mL (≈ 0.00486 to 0.00972 µM). For the same compound, the MIC50 [5] was at most 4 ng/mL, the MIC90 [5] was at most 4 ng/mL and the MIC [5] was at most 4 ng/mL. For the same compound, the MIC50 [6] was at most 4 ng/mL, the MIC90 [6] was at most 4 ng/mL and the MIC [6] was 4 to 8 ng/mL (≈ 0.00486 to 0.00972 µM). It also gave an MIC50 [7] of at most 4 ng/mL, an MIC90 [7] of at most 4 ng/mL and an MIC [7] of at most 4 ng/mL. It also gave an MIC50 [8] of at most 4 ng/mL, an MIC90 [8] of at most 4 ng/mL and an MIC [8] of at most 4 ng/mL. It also gave an MIC50 (L. dumoffii) of 8 ng/mL (≈ 0.00972 µM), an MIC90 (L. dumoffii) of 16 ng/mL (≈ 0.0194 µM) and an MIC (L. dumoffii) of 4 to 30 ng/mL (≈ 0.00486 to 0.0365 µM). For the same compound, the MIC50 (L. micadadei) was 8 ng/mL (≈ 0.00972 µM), the MIC90 (L. micadadei) was 8 ng/mL (≈ 0.00972 µM) and the MIC (L. micadadei) was 8 ng/mL (≈ 0.00972 µM). For the same compound, the MIC50 (L. longbeacheae) was at most 4 ng/mL, the MIC90 (L. longbeacheae) was 60 ng/mL (≈ 0.0729 µM) and the MIC (L. longbeacheae) was 4 to 60 ng/mL (≈ 0.00486 to 0.0729 µM). The MIC50 (Other Legionella spp.) was at most 4 ng/mL, the MIC90 (Other Legionella spp.) was 8 ng/mL (≈ 0.00972 µM) and the MIC (Other Legionella spp.) was 4 to 8 ng/mL (≈ 0.00486 to 0.00972 µM). The “Mean PAE” value [9] was 2.86 ± 5 h, the “Mean PAE” value [10] was 3.09 ± 4 h and the MIC90 [11] was at most 8 ng/mL.
Compound `N[C@@H]1[C@H]2CN(c3nc4c(cc3F)c(=O)c(C(=O)O)cn4-c3ccc(F)cc3F)C[C@@H]12` [Trovafloxacin] has an MIC50 [1] of at most 4 ng/mL, an MIC [1] of 4 to 16 ng/mL (≈ 0.00961 to 0.0384 µM) and an MIC90 [1] of at most 4 ng/mL. The MIC50 [2] was at most 4 ng/mL, the MIC90 [2] was at most 4 ng/mL and the MIC [2] was at most 4 ng/mL. It also gave an MIC50 [3] of at most 4 ng/mL, an MIC90 [3] of at most 4 ng/mL and an MIC [3] of at most 4 ng/mL. For the same compound, the MIC50 [4] was at most 4 ng/mL, the MIC90 [4] was at most 4 ng/mL and the MIC [4] was at most 4 ng/mL. The MIC50 [5] was at most 4 ng/mL, the MIC90 [5] was at most 4 ng/mL and the MIC [5] was 4 to 8 ng/mL (≈ 0.00961 to 0.0192 µM). The MIC50 [6] was at most 4 ng/mL, the MIC90 [6] was at most 4 ng/mL and the MIC [6] was at most 4 ng/mL. For the same compound, the MIC50 [7] was at most 4 ng/mL, the MIC90 [7] was at most 4 ng/mL and the MIC [7] was at most 4 ng/mL. The MIC50 [8] was at most 4 ng/mL, the MIC90 [8] was at most 4 ng/mL and the MIC [8] was at most 4 ng/mL. For the same compound, the MIC50 (L. dumoffii) was 8 ng/mL (≈ 0.0192 µM), the MIC90 (L. dumoffii) was 8 ng/mL (≈ 0.0192 µM) and the MIC (L. dumoffii) was 4 to 8 ng/mL (≈ 0.00961 to 0.0192 µM). It also gave an MIC50 (L. micadadei) of at most 4 ng/mL, an MIC90 (L. micadadei) of at most 4 ng/mL and an MIC (L. micadadei) of at most 4 ng/mL. The MIC50 (L. longbeacheae) was at most 4 ng/mL, the MIC90 (L. longbeacheae) was at most 4 ng/mL and the MIC (L. longbeacheae) was at most 4 ng/mL. For the same compound, the MIC50 (Other Legionella spp.) was at most 4 ng/mL, the MIC90 (Other Legionella spp.) was at most 4 ng/mL and the MIC (Other Legionella spp.) was at most 4 ng/mL. For the same compound, the “Mean PAE” value [9] was 1.71 ± 1 h, the “Mean PAE” value [10] was 1.22 ± 1 h and the MIC90 [11] was at most 8 ng/mL.
